Measured values from BigSolDB 2.1.

Cc1ccc(-c2ccccc2C#N)cc1
solubility (mole fraction)
Conditions	268.05 K	272.97 K	278.05 K	283.15 K	288.15 K	293.15 K	298.13 K	303.05 K
in ethanol	0.0142	0.0159	0.0168	0.0205	0.0284	0.041	0.0604	0.0958
in ethyl acetate	0.163	0.196	0.237	0.284	0.341	0.412	0.482	0.569
